Measured values from patent publication US20240067632A1, “WEE1 Degrading Compounds and Uses Thereof” (Bristol-Myers Squibb Company, priority 2022, published 2024).
Read-outs that look alike come from different tables or passages of the source.

Experiments:
WEE1 = target: T1, WEE1 (Homo sapiens, UniProt P30291+Q96SW2); assay: WEE1-ePL degradation assay (LentiX-WEE1-ePL-GSPT1-ND cells, InCELL Hunter luminescence, 4 h); type: cell-based; conditions: 293T-LentiX WEE1-ePL cells; for DC50: read-out: 293T-LentiX WEE1-ePL Degradation 4 hr (EC50)
T1 construct: C-terminal ePL-tagged (DiscoverX, Fremont, CA) full-length WEE1 expression construct; expressed in transfected cells; host or cells: LentiX-HEK293T (Invitrogen), lentiviral transduction; co-expressing GSPT1-GN (G576N, lacking the first 158 amino acids)
Outline: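 Luminescent readout (InCELL Hunter, 30 min RT) of WEE1-ePL levels in transduced HEK293T cells after 4 h compound exposure at 37 °C. Dosing: 10 points, 3-fold steps, top 1 uM or 10 uM. EC50 from four-parameter logistic fit; Ymax set by DMSO.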

MKN45 cells = assay: MKN45 cell proliferation assay (Cell-Titer-Glo, 120 h); type: cell-based; conditions: for EC50: Homo sapiens, MKN-45, 120 h, Cell-Titer-Glo, read-out: MKN45 Cell Prolif. 120 hr (EC50); for MKN45 Cell Prolif. 120 hr (Ymin-Obs): minimal percent of DMSO control observed in the concentrations tested
Outline: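 Growth inhibition was read as blank-corrected Cell-Titer-Glo luminescence expressed as percent DMSO control after 120 h at 37 C, 400 cells/well. Compounds tested in triplicate as 10-point half-log series from 1 or 10 uM, 0.1% DMSO; four-parameter fit gave EC50, and lowest observed percent control was reported as Ymin-obs.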

[1] = lower limit of the fit (0 = luciferase inhibitor, Ymax = DMSO control)
[2] = lower limit of the fit (Ymin=0 luciferase inhibitor, Ymax DMSO control)

Compound | 293T-LentiX WEE1-ePL Degradation 4 hr (Ymin) (WEE1; [1]) | DC50 (WEE1) [nM] | EC50 (MKN45 cells; growth inhibition) [nM] | MKN45 Cell Prolif. 120 hr (Ymin-Obs) (MKN45 cells) | 293T-LentiX WEE1-ePL Degradation 4 hr (Ymin) (WEE1; [2]) | EC50 (MKN45 cells) [nM]
O=C1CCC(N2Cc3cc(O[C@H]4CCN(Cc5cnc6cnccc6c5)C4)ccc3C2=O)C(=O)N1 (stereo partly drawn) [3-(5-{[(3S)-1-[(1,7-naphthyridin-3-yl)methyl]pyrrolidin-3-yl]oxy}-1-oxo-2,3-dihydro-1H-isoindol-2-yl)piperidine-2,6-dione] | 26.94 | 20.8 | 92.3 | 9.14 |  | 
O=C1CCC(N2Cc3cc(O[C@H]4CCN(Cc5cnn(-c6cccnc6)c5)C4)ccc3C2=O)C(=O)N1 (stereo partly drawn) [3-(1-oxo-5-{[(3S)-1-{[1-(pyridin-3-yl)-1H-pyrazol-4-yl]methyl}pyrrolidin-3-yl]oxy}-2,3-dihydro-1H-isoindol-2-yl)piperidine-2,6-dione] | 31.735 |  | 269 | 11.53 |  | 
Cc1ccc2cc(CN3CC[C@H](Oc4ccc5c(c4)CN(C4CCC(=O)NC4=O)C5=O)[C@@H]3C)ccc2n1 (stereo partly drawn) [3-(5-{[(2S,3S)-2-methyl-1-[(2-methylquinolin-6-yl)methyl]pyrrolidin-3-yl]oxy}-1-oxo-2,3-dihydro-1H-isoindol-2-yl)piperidine-2,6-dione] | 99.5 |  | > 10000 | 87.455 |  | 
COC[C@@H]1CN(Cc2ccc3nc([C@H]4CCOC(C)(C)C4)ccc3c2)C[C@H]1Oc1ccc2c(c1)CN([C@H]1CCC(=O)NC1=O)C2=O [(3S)-3-(5-{[(3S,4S)-1-({2-[(4S)-2,2-dimethyloxan-4-yl]quinolin-6-yl}methyl)-4-(methoxymethyl)pyrrolidin-3-yl]oxy}-1-oxo-2,3-dihydro-1H-isoindol-2-yl)piperidine-2,6-dione] |  | 1.25 |  | 8.285 | 25.45 | 0.558
O=C1CCC(N2Cc3cc(O[C@H]4CCN(Cc5ccc6nc(CC(F)(F)F)ccc6c5)C4)ccc3C2=O)C(=O)N1 (stereo partly drawn) [3-(1-oxo-5-{[(3S)-1-{[2-(2,2,2-trifluoroethyl)quinolin-6-yl]methyl}pyrrolidin-3-yl]oxy}-2,3-dihydro-1H-isoindol-2-yl)piperidine-2,6-dione] | 33.67 | 5.4 | 20.8 | 13.32 |  | 
O=C1CC[C@H](N2Cc3cc(O[C@H]4CCN(Cc5cc(F)c6nc(C7CCOCC7)ncc6c5)C4)ccc3C2=O)C(=O)N1 [(3S)-3-(5-{[(3S)-1-{[8-fluoro-2-(oxan-4-yl)quinazolin-6-yl]methyl}pyrrolidin-3-yl]oxy}-1-oxo-2,3-dihydro-1H-isoindol-2-yl)piperidine-2,6-dione] |  | 27.6 |  | 9.241 | 33.6 | 13.4
O=C1CCC(N2Cc3cc(O[C@H]4CCN(Cc5ccc6nc(N7CCOCC7)ccc6c5)C4)ccc3C2=O)C(=O)N1 (stereo partly drawn) [3-(5-{[(3S)-1-{[2-(morpholin-4-yl)quinolin-6-yl]methyl}pyrrolidin-3-yl]oxy}-1-oxo-2,3-dihydro-1H-isoindol-2-yl)piperidine-2,6-dione] | 35 | 2.69 | 11.9 | 12.168 |  | 
O=C1CCC(N2Cc3cc(O[C@H]4CCN(Cc5ccc6nc([C@@H]7CCOC7)ccc6c5)C4)ccc3C2=O)C(=O)N1 (stereo partly drawn) [3-(1-oxo-5-{[(3S)-1-({2-[(3S)-oxolan-3-yl]quinolin-6-yl}methyl)pyrrolidin-3-yl]oxy}-2,3-dihydro-1H-isoindol-2-yl)piperidine-2,6-dione] | 30 | 2.41 | 2.45 | 8.77 |  | 
CC1(C)C[C@@H](c2ccc3cc(CN4CC[C@H](Oc5ccc6c(c5)CN([C@H]5CCC(=O)NC5=O)C6=O)C4)ncc3c2)CCO1 [(3S)-3-(5-{[(3S)-1-({7-[(4S)-2,2-dimethyloxan-4-yl]isoquinolin-3-yl}methyl)pyrrolidin-3-yl]oxy}-1-oxo-2,3-dihydro-1H-isoindol-2-yl)piperidine-2,6-dione] |  | 1.19 |  | 9.866 | 26.79 | 1.11
O=C1CCC(N2Cc3cc(O[C@H]4CCN(Cc5cc6ccccc6cn5)C4)ccc3C2=O)C(=O)N1 (stereo partly drawn) [3-(5-{[(3S)-1-[(isoquinolin-3-yl)methyl]pyrrolidin-3-yl]oxy}-1-oxo-2,3-dihydro-1H-isoindol-2-yl)piperidine-2,6-dione] | 30.345 | 4.05 | 44.1 | 13.47 |  | 
O=C1CCC(N2Cc3cc(O[C@H]4CCN(Cc5ccc6nc(N7C[C@@H]8C[C@H]7CO8)ncc6c5)C4)ccc3C2=O)C(=O)N1 (stereo partly drawn) [3-(5-{[(3S)-1-({2-[(1S,4S)-2-oxa-5-azabicyclo[2.2.1]heptan-5-yl]quinazolin-6-yl}methyl)pyrrolidin-3-yl]oxy}-1-oxo-2,3-dihydro-1H-isoindol-2-yl)piperidine-2,6-dione] | 34.5 | 12.3 | 9.86 | 9.576 |  | 
O=C1CCC(N2C(=O)c3ccc(O[C@H]4CCN(Cc5ccnc6ccccc56)C4)cc3C2=O)C(=O)N1 (stereo partly drawn) [2-(2,6-dioxopiperidin-3-yl)-5-{[(3S)-1-[(quinolin-4-yl)methyl]pyrrolidin-3-yl]oxy}-2,3-dihydro-1H-isoindole-1,3-dione] | 38.05 | 1230 | 2510 | 48.18 |  | 
CC1(C)C[C@H](c2ccc3cc(CN4CC[C@H](Oc5ccc6c(c5)CN([C@H]5CCC(=O)NC5=O)C6=O)C4)ncc3c2)CCO1 [(3S)-3-(5-{[(3S)-1-({7-[(4R)-2,2-dimethyloxan-4-yl]isoquinolin-3-yl}methyl)pyrrolidin-3-yl]oxy}-1-oxo-2,3-dihydro-1H-isoindol-2-yl)piperidine-2,6-dione] |  | 1.09 |  | 9.482 | 24.44 | 0.593
Cc1nc2ccccc2cc1CN1CC[C@H](Oc2ccc3c(c2)CN(C2CCC(=O)NC2=O)C3=O)C1 (stereo partly drawn) [3-(5-{[(3S)-1-[(2-methylquinolin-3-yl)methyl]pyrrolidin-3-yl]oxy}-1-oxo-2,3-dihydro-1H-isoindol-2-yl)piperidine-2,6-dione] | 34.08 | 8.04 | 34.8 | 11.29 |  | 
CC1(c2ccc3cc(CN4CC[C@H](Oc5ccc6c(c5)CN(C5CCC(=O)NC5=O)C6=O)C4)ccc3n2)CCOCC1 (stereo partly drawn) [3-(5-{[(3S)-1-{[2-(4-methyloxan-4-yl)quinolin-6-yl]methyl}pyrrolidin-3-yl]oxy}-1-oxo-2,3-dihydro-1H-isoindol-2-yl)piperidine-2,6-dione] | 32 | 1.99 | 4.03 | 10.29 |  | 
CC(C)(O)c1cc(CN2CC[C@H](Oc3ccc4c(c3)CN([C@H]3CCC(=O)NC3=O)C4=O)C2)cc2ccc(C3CCOCC3)nc12 [(3S)-3-(5-{[(3S)-1-{[8-(2-hydroxypropan-2-yl)-2-(oxan-4-yl)quinolin-6-yl]methyl}pyrrolidin-3-yl]oxy}-1-oxo-2,3-dihydro-1H-isoindol-2-yl)piperidine-2,6-dione] |  | 6.72 |  | 75.97 | 53.75 | 166
CNC1(c2ccc3cc(CN4CC[C@H](Oc5ccc6c(c5)CN(C5CCC(=O)NC5=O)C6=O)C4)ccc3n2)COC1 (stereo partly drawn) [3-(5-{[(3S)-1-({2-[3-(methylamino)oxetan-3-yl]quinolin-6-yl}methyl)pyrrolidin-3-yl]oxy}-1-oxo-2,3-dihydro-1H-isoindol-2-yl)piperidine-2,6-dione] | 36 | 37.6 | 19.9 | 9.16 |  | 
O=C1CCC(N2Cc3cc(O[C@H]4CCN(Cc5ccc6nc(N7C[C@@H]8C[C@H]7CO8)ccc6c5)C4)ccc3C2=O)C(=O)N1 (stereo partly drawn) [3-(5-{[(3S)-1-({2-[(1S,4S)-2-oxa-5-azabicyclo[2.2.1]heptan-5-yl]quinolin-6-yl}methyl)pyrrolidin-3-yl]oxy}-1-oxo-2,3-dihydro-1H-isoindol-2-yl)piperidine-2,6-dione] | 34 | 2.98 | 5.54 | 8.09 |  | 
CN(C(=O)C1CCOCC1)c1ccc2cc(CN3CC[C@H](Oc4ccc5c(c4)CN(C4CCC(=O)NC4=O)C5=O)C3)ccc2n1 (stereo partly drawn) [N-(6-{[(3S)-3-{[2-(2,6-dioxopiperidin-3-yl)-1-oxo-2,3-dihydro-1H-isoindol-5-yl]oxy}pyrrolidin-1-yl]methyl}quinolin-2-yl)-N-methyloxane-4-carboxamide] | 32.5 | 5.04 | 3.35 | 6.6 |  | 
